We go through 21 compounds from patent US9382197B2, “Substituted hydroxamic acids and uses thereof” (Millennium Pharmaceuticals, Inc., priority 2010, dated 2016).

The target of the first assay is T1, purified human HDAC6 (Homo sapiens, UniProt Q9UBN7).
T1 construct: purchased BPS Bioscience 5006
T1 sequence (Q9UBN7 1-1215): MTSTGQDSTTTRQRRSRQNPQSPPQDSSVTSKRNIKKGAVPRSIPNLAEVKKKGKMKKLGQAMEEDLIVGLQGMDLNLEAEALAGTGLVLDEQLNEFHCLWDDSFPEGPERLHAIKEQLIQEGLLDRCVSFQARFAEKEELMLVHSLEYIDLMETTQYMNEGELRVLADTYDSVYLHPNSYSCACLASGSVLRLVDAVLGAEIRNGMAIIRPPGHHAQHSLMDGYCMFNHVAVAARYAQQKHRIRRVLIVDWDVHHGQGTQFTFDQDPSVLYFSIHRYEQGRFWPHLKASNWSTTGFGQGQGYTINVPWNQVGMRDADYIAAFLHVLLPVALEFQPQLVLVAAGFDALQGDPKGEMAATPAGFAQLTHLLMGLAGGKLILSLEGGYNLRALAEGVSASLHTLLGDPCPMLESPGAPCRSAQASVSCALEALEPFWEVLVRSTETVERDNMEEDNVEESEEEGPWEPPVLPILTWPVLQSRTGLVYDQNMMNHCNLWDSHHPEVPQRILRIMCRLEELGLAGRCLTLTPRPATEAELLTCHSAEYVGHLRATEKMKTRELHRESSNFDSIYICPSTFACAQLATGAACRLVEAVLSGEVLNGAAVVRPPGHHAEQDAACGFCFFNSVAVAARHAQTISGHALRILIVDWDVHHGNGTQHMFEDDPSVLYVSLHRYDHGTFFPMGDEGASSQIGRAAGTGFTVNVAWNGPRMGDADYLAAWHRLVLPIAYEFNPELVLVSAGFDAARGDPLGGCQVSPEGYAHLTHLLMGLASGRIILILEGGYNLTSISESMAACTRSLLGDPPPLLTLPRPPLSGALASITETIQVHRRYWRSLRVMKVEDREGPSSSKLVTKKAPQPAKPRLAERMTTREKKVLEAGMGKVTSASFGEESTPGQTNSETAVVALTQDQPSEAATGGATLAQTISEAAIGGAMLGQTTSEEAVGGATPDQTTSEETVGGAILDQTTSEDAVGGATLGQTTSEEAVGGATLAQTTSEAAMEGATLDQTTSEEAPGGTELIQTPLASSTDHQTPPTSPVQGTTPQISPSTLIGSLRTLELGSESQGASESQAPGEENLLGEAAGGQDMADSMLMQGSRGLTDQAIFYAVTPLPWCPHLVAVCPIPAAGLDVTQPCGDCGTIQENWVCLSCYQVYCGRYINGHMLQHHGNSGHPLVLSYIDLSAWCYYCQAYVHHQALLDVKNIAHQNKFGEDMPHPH
The experiment in a line: HDAC6 Enzyme Assay. In kind it is biochemical. Conditions: bin: greater than 500 nM and less than 1 μM (lower bound in nM, upper bound in μM). The gist of the method: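 Deacetylated product quantified after trypsin digestion as released AMC (340/460 nm), following a 1 h, 30 °C reaction of human HDAC6 with Ac-RGK(Ac)-AMC peptide, quenched by trichostatin A. IC50 derived from DMSO-normalized curves.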
Turning to `Cc1nc(C(F)(F)F)c(C(=O)NC(c2ccc(C(=O)NO)cc2)C(C)C)s1` (stereo not drawn) [Compound I-139, N-(1-{4-[(hydroxyamino)carbonyl]phenyl}-2-methylpropyl)-2-methyl-4-(trifluoromethyl)-1,3-thiazole-5-carboxamide], the IC50 fell in the range of 500 to 1000 nM.
`CC(C)C(NC(=O)c1ccnc2ccccc12)c1ccc(C(=O)NO)cc1` (stereo not drawn) [Compound I-246, N-(1-{4-[(hydroxyamino)carbonyl]phenyl}-2-methylpropyl)quinoline-4-carboxamide] showed an IC50 of 500 to 1000 nM.

The assay is the same for the next values; noted with them: bin: greater than 1 μM.
`CC(NC(=O)CC(C)(C)C)c1cccc(C(=O)NO)c1` (stereo not drawn) [Compound I-333, 3-{1-[(3,3-dimethylbutanoyl)amino]ethyl}-N-hydroxybenzamide] came in with an IC50 above 1000 nM.
Same read-out and setting: in the case of `CC(NC(=O)Cc1ccccc1Cl)c1ccc(C(=O)NO)cc1` (stereo not drawn) [Compound I-292, 4-(1-{[(2-chlorophenyl)acetyl]amino}ethyl)-N-hydroxybenzamide] it was above 1000 nM; in that of `Cc1oc(-c2ccccc2)nc1CC(=O)NC(c1ccc(C(=O)NO)cc1)C(C)(C)C` (stereo not drawn) [Compound I-80, 4-(2,2-dimethyl-1-{[(5-methyl-2-phenyl-1,3-oxazol-4-yl)acetyl]amino}propyl)-N-hydroxybenzamide], above 1000 nM.

The same assay, now with this note: purified human HDAC6, substrate Ac-Arg-Gly-Lys(Ac)-AMC, 1 hour at 30° C.; reported as bins.
In the case of `Cc1ccc2[nH]c(C(=O)NC(C)c3cccc(C(=O)NO)c3)c(C)c2c1` (stereo not drawn) [Compound I-376, N-(1-{3-[(hydroxyamino)carbonyl]phenyl}ethyl)-3,5-dimethyl-1H-indole-2-carboxamide], the IC50 was in the range of 100 to 500 nM.
As to `CC(NC(=O)Nc1cccc(C(F)(F)F)c1)c1ccc(C(=O)NO)cc1` (stereo not drawn) [Compound I-371, N-hydroxy-4-{1-[({[3-(trifluoromethyl)phenyl]amino}carbonyl)amino]ethyl}benzamide], the IC50 was below 100 nM.
In turn, `CCC[C@@H](NC(=O)C1(C)CCCCC1)c1ccc(C(=O)NO)cc1` [Compound I-387, N-hydroxy-4-((1R)-1-{[(1-methylcyclohexyl)carbonyl]amino}butyl)benzamide] showed a concentration for half-maximal inhibition (IC50) below 100 nM.
In the case of `C[C@@H](NC(=O)C(C)(C)C)c1ccc(C(=O)NO)cc1` [Compound I-73, 4-{(1R)-1-[(2,2-dimethylpropanoyl)amino]ethyl}-N-hydroxybenzamide], the IC50 is below 100 nM.
Take `COc1cccc2cc(C(=O)NC(c3ccc(C(=O)NO)cc3)C(C)C)oc12` (stereo not drawn) [Compound I-306, N-(1-{4-[(hydroxyamino)carbonyl]phenyl}-2-methylpropyl)-7-methoxy-1-benzofuran-2-carboxamide]: the IC50 is below 100 nM.
The same measure, in the same setting: in the case of `CC(NC(=O)c1ccc(C(C)(C)C)cc1)c1ccc(C(=O)NO)cc1` (stereo not drawn) [Compound I-350, 4-tert-butyl-N-(1-{4-[(hydroxyamino)carbonyl]phenyl}ethyl)benzamide] it was below 100 nM; in that of `Cc1ccc(C2(C(=O)NC(C)c3ccc(C(=O)NO)cc3)CC2)cc1` (stereo not drawn) [Compound I-264, N-hydroxy-4-[1-({[1-(4-methylphenyl)cyclopropyl]carbonyl}amino)ethyl]benzamide], below 100 nM; in that of `Cn1ccc2cc(C(=O)NC(c3ccc(C(=O)NO)cc3)C(C)(C)C)ccc21` (stereo not drawn) [Compound I-145, N-(1-{4-[(hydroxyamino)carbonyl]phenyl}-2,2-dimethylpropyl)-1-methyl-1H-indole-5-carboxamide], below 100 nM.
Still for that read-out and setting: in the case of `CC(NC(=O)c1cc2ccccc2[nH]1)c1cccc(C(=O)NO)c1` (stereo not drawn) [Compound I-227, N-(1-{3-[(hydroxyamino)carbonyl]phenyl}ethyl)-1H-indole-2-carboxamide] it was 100 to 500 nM; in that of `Cc1ccccc1S(=O)(=O)NC(C)c1ccc(C(=O)NO)cc1` (stereo not drawn) [Compound I-232, N-hydroxy-4-(1-{[(2-methylphenyl)sulfonyl]amino}ethyl)benzamide], 100 to 500 nM; in that of `CC(NC(=O)c1ccc2ccccc2n1)c1ccc(C(=O)NO)cc1` (stereo not drawn) [Compound I-128, N-(1-{4-[(hydroxyamino)carbonyl]phenyl}ethyl)quinoline-2-carboxamide], below 100 nM.
Still for that read-out and setting: in the case of `CCc1cc(C(=O)NC(c2ccc(C(=O)NO)cc2)C(C)(C)C)n(C)n1` (stereo not drawn) [Compound I-318, 3-ethyl-N-(1-{4-[(hydroxyamino)carbonyl]phenyl}-2,2-dimethylpropyl)-1-methyl-1H-pyrazole-5-carboxamide] it was 100 to 500 nM.
`CC(C)C(NC(=O)C12CC3CC(CC(C3)C1)C2)c1ccc(C(=O)NO)cc1` (stereo not drawn) [Compound I-58, N-(1-{4-[(hydroxyamino)carbonyl]phenyl}-2-methylpropyl)adamantane-1-carboxamide] had an IC50 below 100 nM.
`Cc1ccc2[nH]c(C(=O)NC(C)c3cccc(C(=O)NO)c3)cc2c1` (stereo not drawn) [Compound I-342, N-(1-{3-[(hydroxyamino)carbonyl]phenyl}ethyl)-5-methyl-1H-indole-2-carboxamide] showed an IC50 of 100 to 500 nM.
In turn, `C[C@@H](NC(=O)c1cc2oc(-c3ccccc3)cc2n1C)c1cccc(C(=O)NO)c1` [Compound I-16, N-((1R)-1-{3-[(hydroxyamino)carbonyl]phenyl}ethyl)-4-methyl-2-phenyl-4H-furo[3,2-b]pyrrole-5-carboxamide] came in with an IC50 of 100 to 500 nM.
The same measure, in the same setting: to `CC(NC(=O)c1cc2ccccc2n1C)c1ccc(C(=O)NO)cc1` (stereo not drawn) [Compound I-98, N-(1-{4-[(hydroxyamino)carbonyl]phenyl}ethyl)-1-methyl-1H-indole-2-carboxamide] belongs below 100 nM.
